Holding throughout (type): binding, human
One assay relates to AIRE (PP). The assay can be described thus: PHD finger domain microarray. The source says: (§1) To define the histone binding preferences of the PHD finger proteome, we expressed and purified 123 annotated human PHD-containing domains as GST-tagged recombinant fusions from E. coli. The recombinant proteins consisted of either PHD fingers in isolation, or as tandem domains if a given PHD finger was located adjacent to another reader domain (e.g., one or more PHD fingers, Tudor, chromo and/or bromodomains) (Additional file 1: Table S1). These GST fusions were printed in duplicate on nitrocellulose-coated microarray slides and probed with biotinylated peptides that represented the N-termini of H3, H4, H2A or H2B (Fig. 1a and Additional file 2: Figure S1). As the majority of PHD readers thus far characterized are H3K4me0/3 readers, we included additional peptides (H3K4 as either mono-, di-, or trimethylated) to further determine any H3K4 methyl preference (Additional file 2: Figure S2 and Fig. 1b). As a control, we also probed these microarrays with an α-Tubulin peptide (a.a. 30–50) that would not be predicted to interact with PHD fingers (Additional file 2: Figure S1). […] We also cannot exclude the possibility that some PHD fingers might not be functionally active on the microarrays (perhaps due to misfolding or the lack of an important adjacent region).
(§2) The protein domain microarray was designed to include 123 GST-tagged PHD-domain containing recombinant proteins. Protein domain microarray development and probing was as previously. Briefly, recombinant proteins were synthesized and cloned into pGEX-4T-1 vector by Biomatik Corporation. These GST-PHD readers were subsequently expressed, purified, and spotted in duplicate onto nitrocellulose-coated glass slides (Oncyte Avid slides, Grace Bio-Labs) using a pin arrayer (Aushon 2470, Aushon). For probing, microarray slides were blocked with 3% milk, 3% bovine serum albumin, 0.1% Tween 20 in PBS. Biotinylated peptides were pre-labeled with streptavidin-Cy3 fluorophore (GE Healthcare) and incubated with the blocked array slides. Slides were then washed with PBST and allowed to air dry. Fluorescent interactions were visualized using a GenePix 4200A Microarray Scanner (Molecular Devices).

In a further assay the test system is KDM5A (PHD1). The assay can be described thus: PHD finger domain microarray.
Source text: as §1, §2

For the next assay, the system named is KDM5B (PHD1). The assay is described as follows: PHD finger domain microarray.
Source text: as §1, §2

The test system of another assay is PHF21A. The assay can be described thus: PHD finger domain microarray.
Source text: as §1, §2

The subject of the next assay is TRIM66 (PB). The assay is described as follows: PHD finger domain microarray.
Source text: as §1, §2

The subject of a further assay is DIDO1. The assay can be described thus: dCypher AlphaScreen Phase B (full peptide screen). Particulars: reader 0.1 nM, 100 nM peptide, 23 °C, n = 2. As to the method: (§3) X-axes are log(protein concentration (M)) at constant peptide concentration (100 nM); Y-axes are AlphaScreen counts, representing relative strength of binding (n = 2; error bars are S.D.). i Heat map represents relative binding to H3 N-terminal peptides (left) by PHD-containing GST-tagged proteins (top) using the dCypher AlphaScreen platform. Protein concentrations can be found in Additional file 5: Table S4. Binding strength is indicated by color gradient from green to yellow (stronger to weaker). […] Alpha counts (n = 2) were normalized individually for each protein to the highest signal for each respective assay. For full dCypher peptide screen data, see Additional file 4: Table S3
(§4) Once the optimal protein concentration ranges for each of the eight readers were determined, we conducted the full dCypher peptide screen (293 histone peptides) (Fig. 3i; Additional file 4: Table S3).
(§5) The dCypher peptide screen assay was performed as previously described. Briefly, 5 μL of GST-tagged reader domains (optimal protein concentration for library screening determined by initial binding curves to candidate peptides) were incubated with 5 μL of 400 nM (100 nM Final) biotinylated histone peptides (EpiCypher) for 30 min at 23 °C in 1× AlphaLISA Epigenetics buffer + epigenetics buffer supplement (PerkinElmer, AL1008) in a 384-well plate. A 10 μL mix of 5 µg/mL (2.5 μg/mL final) glutathione Acceptor beads (PerkinElmer, AL109M) and 10 μg/mL (5 μg/mL final) streptavidin Donor beads (PerkinElmer, 6760002) was prepared in 1× [Epigenetics buffer + supplement] and added to each well. Plates were incubated at 23 °C in subdued lighting for 60 min and AlphaLISA signal measured on a PerkinElmer 2104 EnVision (680 nm laser excitation, 570 nm emission filter ± 50 nm bandwidth).
(§6) Supplementary file 13072_2020_328_MOESM4_ESM.xlsx: Additional file 4: Table S3. dCypher Results. Excel Tab Peptide Phase A is a compiled set of binding data: chromatin reader titration vs. several peptide targets. Data is presented as raw Alpha counts in duplicates at each concentration tested. Excel Tab Peptide Phase B is a compiled set of binding data: chromatin reader at optimized concentrations vs. entire 293 peptide library. Data is presented as the average and standard deviation of duplicates. […] Key: red = strong binding; blue = weak/no binding.

Another assay deals with MLL5. The assay is described as follows: dCypher AlphaScreen Phase B (full peptide screen). Particulars: reader 0.02 nM, 100 nM peptide, 23 °C, n = 2. As to the method: as §3, §4, §5, §6
In a further assay the test system is KDM5A (PHD3). The assay can be described thus: PHD finger domain microarray.
Source text: as §1, §2

A further assay relates to KDM7A. The assay is described as follows: dCypher AlphaScreen Phase B (full peptide screen). As to conditions: reader 0.15 nM, 100 nM peptide, 23 °C, n = 2. As to the method: as §3, §4, §5, §6
For a further assay, the system named is DPF2 (PPC2W2). The assay can be described thus: dCypher AlphaScreen Phase B (full peptide screen). As to conditions: reader 0.1 nM, 100 nM peptide, 23 °C, n = 2. As to the method: as §3, §4, §5, §6
For another assay, the system named is H3K4me0 readers. The assay is described as follows: dCypher AlphaScreen Phase B (full peptide screen), H3K4me0 readers together. Particulars: 100 nM peptide, 23 °C, n = 2. As to the method:
Fig. 3 dCypher histone peptide-binding assays define the PTM recognition preference of PHD proteins with high sensitivity. a–h Binding curves to determine optimal reader protein concentration for full peptide library screening on the dCypher® AlphaScreen® platform (see “Methods”). X-axes are log(protein concentration (M)) at constant peptide concentration (100 nM); Y-axes are AlphaScreen counts, representing relative strength of binding (n = 2; error bars are S.D.). i Heat map represents relative binding to H3 N-terminal peptides (left) by PHD-containing GST-tagged proteins (top) using the dCypher AlphaScreen platform. Protein concentrations can be found in Additional file 5: Table S4. […]
as §4
The dCypher peptide screen assay was performed as previously described. Briefly, 5 μL of GST-tagged reader domains (optimal protein concentration for library screening determined by initial binding curves to candidate peptides) were incubated with 5 μL of 400 nM (100 nM Final) biotinylated histone peptides (EpiCypher) for 30 min at 23 °C in 1× AlphaLISA Epigenetics buffer + epigenetics buffer supplement (PerkinElmer, AL1008) in a 384-well plate. […]

On to “H3 (1-20): unmodified H3 N-terminal peptide (1–20)”, for which the binding preference result in the assay with AIRE (PP) is recorded as “preference for the unmethylated H3K4 state”; in the assay with KDM5A (PHD1), “preference for the unmethylated H3K4 state”; with KDM5B (PHD1) it was “preference for the unmethylated H3K4 state”; in the assay on PHF21A, “preference for the unmethylated H3K4 state”; in the assay with TRIM66 (PB) (listed as unmethylated H3K4), “preference for the unmethylated H3K4 state”; with TRIM66 (PB) (listed as unmodified H3 tail), “readers of the unmodified H3 tail”.
Turning to H3K4me1: H3 1-20 [Peptide H3K4me1], the binding result in the assay with DIDO1 and with MLL5 was “also identified interaction of these domains with the H3K4me1 peptide” each time.
Consider H3K4me3: H3 1-20 [Peptide H3K4me3], for which the binding preference result in the assay with KDM5A (PHD3) is on record as “consistent with their current classification as H3K4me3 binders”. Further, the binding entry in the assay on KDM7A was “reader of H3K4me3”.
In the case of H3K9me3: H3 1-20 [Peptide H3K9me3], in the assay with DPF2 (PPC2W2), the binding entry was “ability to bind to the peptides containing H3K9me3”.
As for H3S10p: H3 1-20 [Peptide H3S10p], in the assay on H3K4me0 readers, the “loss of binding on S10 phosphorylation” value is given as “this phenomenon is also observed”.

These data come from article PMC6979384, “Characterization of the plant homeodomain (PHD) reader family for their histone tail interactions” (Epigenetics & Chromatin, 2020).
